According to the NIST ThermoML archive (doi:10.1021/je900596d):

Details: Vibrating tube method

FC(F)=C(F)C(F)(F)F [hexafluoropropene]
Details	mass density [kg/m3]
358 K, 4209.5 kPa, Liquid	959.82
358 K, 4244 kPa, Liquid	962.07
358 K, 4311.4 kPa, Liquid	966.64
358 K, 4345.1 kPa, Liquid	968.66
358 K, 4377.8 kPa, Liquid	970.84
358 K, 4412.5 kPa, Liquid	972.94
358 K, 4446.5 kPa, Liquid	974.92
358 K, 4462.6 kPa, Liquid	975.95
358 K, 4478.8 kPa, Liquid	976.81
358 K, 4496.2 kPa, Liquid	977.89
358 K, 4532.3 kPa, Liquid	980.04
358 K, 4565.8 kPa, Liquid	981.81
358 K, 4599.8 kPa, Liquid	983.7
358 K, 4632.6 kPa, Liquid	985.44
358 K, 4668.1 kPa, Liquid	987.45
358 K, 4740 kPa, Liquid	991.23
358 K, 4775.8 kPa, Liquid	993.1
358 K, 4809.3 kPa, Liquid	994.65
358 K, 4843.6 kPa, Liquid	996.44
358 K, 4876.3 kPa, Liquid	997.93
358 K, 4910.7 kPa, Liquid	999.61
358 K, 4945.1 kPa, Liquid	1001.33
358 K, 4979.1 kPa, Liquid	1002.85
358 K, 5028.3 kPa, Liquid	1005.04
358 K, 5084.7 kPa, Liquid	1007.62
358 K, 5195.4 kPa, Liquid	1012.4
358 K, 5249.7 kPa, Liquid	1014.83
358 K, 5306.8 kPa, Liquid	1017.1
358 K, 5363.6 kPa, Liquid	1019.45
358 K, 5416.2 kPa, Liquid	1021.54
358 K, 5474.6 kPa, Liquid	1023.85
358 K, 5533.9 kPa, Liquid	1026.1
358 K, 5592 kPa, Liquid	1028.23
358 K, 5702.1 kPa, Liquid	1032.29
358 K, 5755.2 kPa, Liquid	1034.16
358 K, 5815.3 kPa, Liquid	1036.29
358 K, 5871.8 kPa, Liquid	1038.22
358 K, 5932.6 kPa, Liquid	1040.24
358 K, 5991.6 kPa, Liquid	1042.28
358 K, 6074.8 kPa, Liquid	1044.98
358 K, 6112.3 kPa, Liquid	1046.22
358 K, 6149.2 kPa, Liquid	1047.34
358 K, 6186.4 kPa, Liquid	1048.47
358 K, 6224.4 kPa, Liquid	1049.67
358 K, 6266.3 kPa, Liquid	1050.92
358 K, 6304.3 kPa, Liquid	1052.13
358 K, 6342.4 kPa, Liquid	1053.2
358 K, 6379.7 kPa, Liquid	1054.31
358 K, 6416.4 kPa, Liquid	1055.29
358 K, 6452.8 kPa, Liquid	1056.39
358 K, 6490 kPa, Liquid	1057.54
358 K, 6563.2 kPa, Liquid	1059.62
358 K, 6600.1 kPa, Liquid	1060.63
358 K, 6637.3 kPa, Liquid	1061.72
358 K, 6674.3 kPa, Liquid	1062.71
358 K, 6711.6 kPa, Liquid	1063.79
358 K, 6747.9 kPa, Liquid	1064.77
358 K, 6784.3 kPa, Liquid	1065.78
358 K, 6821 kPa, Liquid	1066.78
358 K, 6857.4 kPa, Liquid	1067.85
358 K, 6894.7 kPa, Liquid	1068.84
358 K, 6931.9 kPa, Liquid	1069.87
358 K, 6970.4 kPa, Liquid	1070.83
358 K, 7006.9 kPa, Liquid	1071.75
358 K, 7152.9 kPa, Liquid	1075.52
358 K, 7190.1 kPa, Liquid	1076.36
358 K, 7228 kPa, Liquid	1077.43
358 K, 7266.4 kPa, Liquid	1078.28
358 K, 7303.8 kPa, Liquid	1079.27
358 K, 7341.7 kPa, Liquid	1080.24
358 K, 7379.5 kPa, Liquid	1081.09
358 K, 7418.9 kPa, Liquid	1082.02
358 K, 7494.3 kPa, Liquid	1083.92
358 K, 7532.3 kPa, Liquid	1084.8
358 K, 7568.4 kPa, Liquid	1085.67
358 K, 7605.7 kPa, Liquid	1086.46
358 K, 7643.1 kPa, Liquid	1087.34
358 K, 7680.1 kPa, Liquid	1088.21
358 K, 7718 kPa, Liquid	1089.17
358 K, 7755.4 kPa, Liquid	1089.97
358 K, 7792.1 kPa, Liquid	1090.77
358 K, 7828.3 kPa, Liquid	1091.56
358 K, 7903.4 kPa, Liquid	1093.29
358 K, 7941.2 kPa, Liquid	1094.08
358 K, 7980.6 kPa, Liquid	1094.93
358 K, 8017.9 kPa, Liquid	1095.72
358 K, 8056.1 kPa, Liquid	1096.58
358 K, 8093.2 kPa, Liquid	1097.39
358 K, 8130.7 kPa, Liquid	1098.19
358 K, 8167.5 kPa, Liquid	1098.98
358 K, 8204.2 kPa, Liquid	1099.77
358 K, 8277.6 kPa, Liquid	1101.37
358 K, 8354.7 kPa, Liquid	1102.88
358 K, 8391 kPa, Liquid	1103.6
358 K, 8427.7 kPa, Liquid	1104.39
358 K, 8465.5 kPa, Liquid	1105.17
358 K, 8503.3 kPa, Liquid	1105.96
358 K, 8541.1 kPa, Liquid	1106.74
358 K, 8614.7 kPa, Liquid	1108.07
358 K, 8651.4 kPa, Liquid	1108.96
358 K, 8689.1 kPa, Liquid	1109.62
358 K, 8725.5 kPa, Liquid	1110.44
358 K, 8762.8 kPa, Liquid	1111.12
358 K, 8836.9 kPa, Liquid	1112.57
358 K, 8873.4 kPa, Liquid	1113.15
358 K, 8910.1 kPa, Liquid	1113.92
358 K, 8946.4 kPa, Liquid	1114.65
358 K, 8982.6 kPa, Liquid	1115.32
358 K, 9019.5 kPa, Liquid	1115.96
358 K, 9058.4 kPa, Liquid	1116.68
358 K, 9094.5 kPa, Liquid	1117.44
358 K, 9170.1 kPa, Liquid	1118.78
358 K, 9207.6 kPa, Liquid	1119.39
358 K, 9244 kPa, Liquid	1120.02
358 K, 9318.1 kPa, Liquid	1121.42
358 K, 9355.8 kPa, Liquid	1122.09
358 K, 9393.2 kPa, Liquid	1122.82
358 K, 9429.9 kPa, Liquid	1123.38
358 K, 9506 kPa, Liquid	1124.84
358 K, 9543.2 kPa, Liquid	1125.38
358 K, 9579.6 kPa, Liquid	1126.21
358 K, 9653.1 kPa, Liquid	1127.35
358 K, 9689.3 kPa, Liquid	1128.07
358 K, 9728 kPa, Liquid	1128.56
358 K, 9764.4 kPa, Liquid	1129.27
358 K, 9801.8 kPa, Liquid	1129.98
358 K, 9839.1 kPa, Liquid	1130.57
358 K, 9875.2 kPa, Liquid	1131.06
358 K, 9913 kPa, Liquid	1131.87
358 K, 9951.5 kPa, Liquid	1132.43
358 K, 9988 kPa, Liquid	1133.16
358.16 K, 4.9 kPa, Fluid (supercritical or subcritical phases)	0.14
358.16 K, 5.8 kPa, Fluid (supercritical or subcritical phases)	0.15
358.16 K, 6.2 kPa, Fluid (supercritical or subcritical phases)	0.17
